# Test results reported in ChEMBL document CHEMBL1201862, “PubChem BioAssay data set” (2004).
# Active and inactive are the calls of the source.
# Legend:
# [1] = alpha-synuclein stem-loop luciferase translation blockers – H4 neuroglioma cells, luminescence, confirmation (AID 1988); type: functional, cell-based
# [2] = HEK-293T cell viability reduction – luminescence, B-cell screen hits, cytotoxicity control for BCR NF-kB inhibitor project, dose response (AID 489021); type: functional, cell-based;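 further: HEK-293T cells carrying an NF-kB luciferase reporter; cells exposed to compound for about 14 hours before viability readout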
# [3] = luciferase reporter signal suppression in cells – H4 neuroglioma cells, luminescence, dose response (AID 1990); type: functional, cell-based
# [4] = Luminescence Cell-Based Dose Response HTS to Identify Inhibitors of 5'UTR Stem-Loop Driven Prion Protein mRNA Translation in H4 Neuroglioblastoma Cells. [Related pubchem assays: 1827 (Project Summary), 1813 (Primary HTS)]; type: functional
# [5] = NIH3T3 cell viability loss – ATP luminescence, mouse fibroblasts, counter-screen, dose response (AID 2010); type: functional, cell-based;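 further: cells exposed to compound for about 90 hours before reading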
# [6] = biological target: T1, Short transient receptor potential channel 4 (Mus musculus, UniProt Q9QUQ5); test: block of DAMGO-driven TRPC4 calcium entry – cell-based, HEK293 TRPC4/mu-opioid, Fluo-4 calcium, dose response (AID 434942); type: functional;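 further: potency of inhibitors blocking the TRPC4 calcium response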
# T1 sequence (Q9QUQ5 whole entry): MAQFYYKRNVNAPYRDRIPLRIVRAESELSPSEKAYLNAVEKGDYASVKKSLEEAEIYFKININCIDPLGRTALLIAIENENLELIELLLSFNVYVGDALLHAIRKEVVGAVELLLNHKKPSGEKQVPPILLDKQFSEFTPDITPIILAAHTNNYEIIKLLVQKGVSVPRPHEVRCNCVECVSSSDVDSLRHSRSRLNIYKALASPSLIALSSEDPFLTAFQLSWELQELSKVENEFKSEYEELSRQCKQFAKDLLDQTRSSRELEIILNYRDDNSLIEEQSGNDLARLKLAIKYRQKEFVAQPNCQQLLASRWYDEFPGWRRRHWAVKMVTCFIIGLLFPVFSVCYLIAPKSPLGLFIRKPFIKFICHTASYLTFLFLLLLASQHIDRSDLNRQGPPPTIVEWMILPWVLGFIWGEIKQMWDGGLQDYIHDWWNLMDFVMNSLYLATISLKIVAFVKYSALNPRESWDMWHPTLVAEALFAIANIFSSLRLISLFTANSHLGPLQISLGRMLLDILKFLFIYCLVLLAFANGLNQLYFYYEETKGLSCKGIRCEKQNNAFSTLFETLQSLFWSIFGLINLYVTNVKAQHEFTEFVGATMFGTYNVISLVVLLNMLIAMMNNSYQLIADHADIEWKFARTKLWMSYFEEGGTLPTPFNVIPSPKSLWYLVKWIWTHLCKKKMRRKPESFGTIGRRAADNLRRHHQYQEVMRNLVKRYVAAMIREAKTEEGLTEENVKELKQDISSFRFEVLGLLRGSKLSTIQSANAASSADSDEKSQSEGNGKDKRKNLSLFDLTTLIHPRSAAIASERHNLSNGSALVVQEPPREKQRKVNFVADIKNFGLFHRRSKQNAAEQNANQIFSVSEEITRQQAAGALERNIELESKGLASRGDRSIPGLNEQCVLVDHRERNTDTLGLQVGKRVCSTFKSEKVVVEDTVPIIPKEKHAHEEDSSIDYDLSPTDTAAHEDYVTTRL
# [7] = Trypanosoma cruzi growth suppression in host cells – NIH3T3 host cells, beta-gal luminescence, confirmation (AID 2044); type: functional, cell-based;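 further: intracellular parasites grown in NIH/3T3 mouse fibroblasts as host cells; luminescent beta-galactosidase reporter signal from transgenic T. cruzi replicating inside host cells; inhibitors lower the luminescence signal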
# [8] = biological target: T2, Heat shock factor protein 1 (Mus musculus, UniProt P38532); test: decrease of HSF1-responsive luciferase luminescence – cell-based, NIH3T3, dose retest, confirmation (AID 2382); type: functional;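 further: NIH3T3 fibroblasts with HSF1-driven luciferase reporter stressed by proteasome inhibitor MG132; luminescence from HSF1-driven luciferase expression after 8 hours of MG132 stress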
# T2 sequence (P38532 whole entry): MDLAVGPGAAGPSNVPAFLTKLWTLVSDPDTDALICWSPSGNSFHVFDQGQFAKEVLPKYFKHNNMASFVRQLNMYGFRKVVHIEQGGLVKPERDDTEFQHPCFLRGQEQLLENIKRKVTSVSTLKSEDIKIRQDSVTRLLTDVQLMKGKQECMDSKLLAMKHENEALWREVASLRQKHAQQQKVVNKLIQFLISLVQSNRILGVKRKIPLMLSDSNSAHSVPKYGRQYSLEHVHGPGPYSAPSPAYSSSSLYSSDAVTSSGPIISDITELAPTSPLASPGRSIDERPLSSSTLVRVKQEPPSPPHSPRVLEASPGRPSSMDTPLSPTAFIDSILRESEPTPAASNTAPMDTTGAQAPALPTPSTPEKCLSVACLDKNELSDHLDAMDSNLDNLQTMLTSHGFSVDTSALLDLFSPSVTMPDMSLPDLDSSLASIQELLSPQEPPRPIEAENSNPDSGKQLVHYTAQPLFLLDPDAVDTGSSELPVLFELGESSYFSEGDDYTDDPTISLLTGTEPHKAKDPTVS
# [9] = biological target: T3, Ubiquitin-conjugating enzyme E2 N (Homo sapiens, UniProt P61088); type: functional;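 further: Dose-response confirmation in a TR-FRET assay detecting UBC13-driven polyubiquitin chain formation, inhibition measured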
# T3 sequence (P61088 whole entry): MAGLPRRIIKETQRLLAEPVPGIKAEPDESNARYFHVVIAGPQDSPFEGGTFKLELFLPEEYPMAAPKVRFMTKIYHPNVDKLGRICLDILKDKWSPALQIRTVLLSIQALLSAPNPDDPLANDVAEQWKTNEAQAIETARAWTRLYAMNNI
# [10] = NIH-3T3 fibroblast cytotoxicity, dose response, cytotoxicity control, cell-based, fluorescence, Alamar Blue, secondary assay (AID 2327); type: functional;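 further: NIH-3T3 mouse fibroblasts cultured with fluconazole at 8 µg/mL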
# [11] = biological target: T4, Sentrin-specific protease 6 (Homo sapiens, UniProt Q9GZR1); type: functional;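 further: Luminescence-based dose-response confirmatory assay of SENP6 inhibition, following up an ultra-high-throughput screen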
# T4 sequence (Q9GZR1 whole entry): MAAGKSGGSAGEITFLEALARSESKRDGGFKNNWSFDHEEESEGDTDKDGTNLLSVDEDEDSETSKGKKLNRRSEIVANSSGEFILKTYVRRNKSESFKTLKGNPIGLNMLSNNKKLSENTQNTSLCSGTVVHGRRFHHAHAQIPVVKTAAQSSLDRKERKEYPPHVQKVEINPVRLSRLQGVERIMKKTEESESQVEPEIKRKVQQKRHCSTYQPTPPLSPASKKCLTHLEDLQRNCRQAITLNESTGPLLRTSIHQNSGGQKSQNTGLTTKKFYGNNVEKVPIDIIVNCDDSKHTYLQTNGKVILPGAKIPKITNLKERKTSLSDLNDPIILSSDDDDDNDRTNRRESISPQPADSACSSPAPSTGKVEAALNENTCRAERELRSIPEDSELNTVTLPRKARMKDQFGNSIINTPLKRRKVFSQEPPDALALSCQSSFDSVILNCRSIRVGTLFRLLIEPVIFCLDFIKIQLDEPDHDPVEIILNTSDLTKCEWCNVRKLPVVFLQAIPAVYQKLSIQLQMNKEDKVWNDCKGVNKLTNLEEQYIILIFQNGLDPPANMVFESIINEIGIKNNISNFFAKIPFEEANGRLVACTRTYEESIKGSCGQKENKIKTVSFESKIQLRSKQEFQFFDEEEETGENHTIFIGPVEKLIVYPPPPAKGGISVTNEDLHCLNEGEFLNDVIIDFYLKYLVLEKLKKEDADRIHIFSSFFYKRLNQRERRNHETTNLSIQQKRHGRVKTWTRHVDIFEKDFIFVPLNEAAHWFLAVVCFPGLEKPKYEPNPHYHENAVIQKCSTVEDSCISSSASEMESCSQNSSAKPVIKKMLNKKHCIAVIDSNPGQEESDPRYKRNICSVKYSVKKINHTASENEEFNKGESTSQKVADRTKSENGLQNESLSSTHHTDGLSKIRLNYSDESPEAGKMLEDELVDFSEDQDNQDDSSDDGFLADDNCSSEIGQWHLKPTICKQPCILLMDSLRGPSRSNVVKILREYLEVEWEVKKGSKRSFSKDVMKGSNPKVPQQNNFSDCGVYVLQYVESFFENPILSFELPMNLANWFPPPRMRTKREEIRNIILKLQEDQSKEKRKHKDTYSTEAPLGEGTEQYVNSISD
# [12] = biological target: T5, Sentrin-specific protease 8 (Homo sapiens, UniProt Q96LD8); type: functional;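 further: luminescence read-out of SENP8 inhibition, dose-response confirmation following an ultra-high-throughput screen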
# T5 sequence (Q96LD8 whole entry): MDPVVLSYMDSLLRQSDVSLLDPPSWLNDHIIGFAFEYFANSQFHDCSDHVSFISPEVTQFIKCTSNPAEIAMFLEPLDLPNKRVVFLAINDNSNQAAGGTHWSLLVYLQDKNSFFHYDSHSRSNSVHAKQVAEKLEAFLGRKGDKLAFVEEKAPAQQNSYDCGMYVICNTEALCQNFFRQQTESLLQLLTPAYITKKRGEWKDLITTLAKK
# [13] = biological target: T6, Caspase-3 (Homo sapiens, UniProt P42574); type: functional;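 further: Dose-response selectivity test against caspase-3 for candidate inhibitors of sentrin-specific proteases (SENPs)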
# T6 sequence (P42574 whole entry): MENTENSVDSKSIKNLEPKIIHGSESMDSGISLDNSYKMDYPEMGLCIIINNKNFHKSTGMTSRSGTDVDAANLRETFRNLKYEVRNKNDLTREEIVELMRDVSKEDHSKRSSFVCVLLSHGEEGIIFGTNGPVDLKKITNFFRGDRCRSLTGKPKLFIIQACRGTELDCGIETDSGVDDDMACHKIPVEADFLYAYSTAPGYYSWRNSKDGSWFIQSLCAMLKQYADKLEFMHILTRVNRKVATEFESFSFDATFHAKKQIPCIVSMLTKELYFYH
# [14] = biological target: T7, Sentrin-specific protease 7 (Homo sapiens, UniProt Q9BQF6); type: functional;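 further: Luminescence-based dose-response confirmation of ultra-high-throughput screening hits, measuring inhibition of SENP7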
# T7 sequence (Q9BQF6 whole entry): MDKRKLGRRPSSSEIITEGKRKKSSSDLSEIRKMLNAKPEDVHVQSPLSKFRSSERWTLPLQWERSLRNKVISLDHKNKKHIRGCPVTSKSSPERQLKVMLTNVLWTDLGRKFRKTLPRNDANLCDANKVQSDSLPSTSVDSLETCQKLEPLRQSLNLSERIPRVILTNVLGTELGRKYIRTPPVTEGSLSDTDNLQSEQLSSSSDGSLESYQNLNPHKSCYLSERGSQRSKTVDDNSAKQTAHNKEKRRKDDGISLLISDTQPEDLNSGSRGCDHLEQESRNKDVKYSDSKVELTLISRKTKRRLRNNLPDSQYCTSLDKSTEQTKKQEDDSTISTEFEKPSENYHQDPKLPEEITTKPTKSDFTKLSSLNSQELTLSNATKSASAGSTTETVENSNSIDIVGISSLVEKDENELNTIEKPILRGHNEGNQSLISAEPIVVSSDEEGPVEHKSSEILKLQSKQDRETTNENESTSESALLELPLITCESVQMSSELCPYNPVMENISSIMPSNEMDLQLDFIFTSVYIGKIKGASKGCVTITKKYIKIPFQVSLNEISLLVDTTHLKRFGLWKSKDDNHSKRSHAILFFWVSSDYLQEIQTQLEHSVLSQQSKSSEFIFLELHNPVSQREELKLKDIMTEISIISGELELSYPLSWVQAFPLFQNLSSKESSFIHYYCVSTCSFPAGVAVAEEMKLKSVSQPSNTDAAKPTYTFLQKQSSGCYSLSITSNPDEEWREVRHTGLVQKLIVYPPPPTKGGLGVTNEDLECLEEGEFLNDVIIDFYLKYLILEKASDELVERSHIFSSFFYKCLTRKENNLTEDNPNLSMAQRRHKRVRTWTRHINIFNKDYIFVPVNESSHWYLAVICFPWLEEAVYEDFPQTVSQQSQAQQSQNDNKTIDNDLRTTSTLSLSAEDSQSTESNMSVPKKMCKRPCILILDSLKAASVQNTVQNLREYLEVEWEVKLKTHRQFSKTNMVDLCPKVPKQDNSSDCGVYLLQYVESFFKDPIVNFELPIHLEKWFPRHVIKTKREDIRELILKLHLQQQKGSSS
# [15] = biological target: T8, Calpain-2 catalytic subunit (Sus scrofa, UniProt P43367); test: m-calpain protease blockers, concentration series – biochemical, fluorogenic peptide substrate, dose response (AID 1420); type: functional
# T8 sequence (P43367 whole entry): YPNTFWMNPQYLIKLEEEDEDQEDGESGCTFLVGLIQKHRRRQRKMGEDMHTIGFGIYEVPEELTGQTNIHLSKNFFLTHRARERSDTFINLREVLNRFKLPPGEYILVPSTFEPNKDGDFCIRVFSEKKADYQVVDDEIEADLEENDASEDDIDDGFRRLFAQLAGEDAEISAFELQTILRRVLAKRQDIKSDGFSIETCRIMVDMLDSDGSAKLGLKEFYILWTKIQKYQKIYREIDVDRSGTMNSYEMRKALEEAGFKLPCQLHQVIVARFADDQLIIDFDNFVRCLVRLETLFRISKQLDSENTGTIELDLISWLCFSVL
# [16] = biological target: T2, Heat shock factor protein 1; test: enhancement of HSF1-driven luciferase signal – cell-based, NIH3T3, luminescence, dose retest, confirmation (AID 435004); type: functional;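 further: stress induced by proteasome inhibitor MG132 added 30 min after compound; luciferase reporter driven by HSF1 response element in NIH3T3 cells; actives raise luminescence as potentiators of the MG132 stress response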
smiles,measurement,setting,value
Cc1cccc(C(=O)Nc2ccc(CC(=O)O)cc2)c1,EC50,[1],28.5 µM (active)
same,IC50,[2],> 80 µM (inactive)
same,EC50,[3],12.9 µM (active)
same,EC50,[4],16.9 µM (active)
NC(=O)C1CCN(C(=O)COc2ccc3ccccc3c2Br)CC1,IC50,[2],> 80 µM (inactive)
Cc1cccc2cc(CN(CCCN(C)C)C(S)=NCCc3ccccc3)c(O)nc12,EC50,[5],> 30 µM (not active)
same,EC50,[6],4.22 µM (active)
same,EC50,[7],0.69 µM (active)
O=C(CCCc1nc(-c2ccccc2Cl)no1)NC1CCCC1,EC50,[1],0.606 µM (active)
same,IC50,[2],> 80 µM (inactive)
same,EC50,[8],> 195 µM (not active)
same,EC50,[3],0.822 µM (active)
same,EC50,[4],5.93 µM (active)
C#Cc1ccc(CN2CCCC(C(=O)Nc3ccccc3Oc3cccnc3)C2)cc1 (centres undefined),EC50,[6],1.68 µM (active)
O=C(COC(=O)c1c(Cl)cccc1Cl)Nc1ccccc1Br,EC50,[6],1.33 µM (active)
COc1ncnc2sc3c(c12)CCCC3,EC50,[6],5.96 µM (active)
O=C(CCCN1C(=O)/C(=C/c2ccccc2Cl)SC1=S)NNC(=O)c1ccc(Cl)cc1,IC50,[2],> 80 µM (inactive)
same,IC50,[9],> 20 µM (inactive)
Cc1c(CCOC(=O)CC23CC4CC(CC(C4)C2)C3)sc[n+]1Cc1ccccc1,EC50,[10],> 160 µM (inactive)
same,EC50,[6],5.96 µM (active)
O=C(COC(=O)c1cccc(NC(=O)c2ccco2)c1)c1ccc(Br)cc1,IC50,[11],9.01 µM (active)
same,IC50,[12],8.37 µM (active)
same,IC50,[13],32.2 µM (active)
same,IC50,[14],6.05 µM (active)
CCN(CC)c1ncnc2scc(C3COc4ccccc4O3)c12 (centres undefined),IC50,[15],10.3 µM (not active)
same,EC50,[6],5.31 µM (active)
CC1CCN(CCCOc2ccc(OCc3ccccc3)cc2)CC1,EC50,[6],0.531 µM (active)
COc1ccc(/C=C2\SC(=S)N(CCC(=O)Nc3cccc(O)c3)C2=O)cc1,EC50,[16],58.8 µM (active)
same,IC50,[2],> 80 µM (inactive)
